{"source": "paper PMC7504721", "about": "“Targeting the Initiator Protease of the Classical Pathway of Complement Using Fragment-Based Drug Discovery” (Molecules, 2020)", "key": {"classical pathway": {"tested_on": "classical pathway", "experiment": "Classical pathway-specific ELISA-based complement inhibition assay (C4b deposition, IgM-coated plate, human serum)", "type": "biochemical", "details": "single 500 µM concentration, triplicate, 1% normal human serum, unpaired t-test p < 0.05", "method": "To carry out classical pathway ELISA-based inhibition assays, IgM was dissolved in coating buffer (100 mM Na2CO3/NaHCO3, pH 9.6) to a final concentration of 3 µg/mL and was dispensed into 96-well plates at 100 µL per well. Mannan was dissolved to 2 µg/mL and lipopolysaccharides (LPS) were dissolved to 10 µg/mL in coating buffer for use in lectin and alternative pathway inhibition assays, respectively. Immobilization was allowed to proceed overnight at 25 °C. The immobilization reagent was then removed, followed by three washes in washing buffer (50 mM Tris pH 8.0, 200 mM NaCl, 0.05% (v/v) Tween-20), and blocked using 100 µL of 1% (w/v) bovine serum albumin in PBS-T for 1 h at 37°C. Blocking buffer was removed and plates were washed three times in washing buffer. Next, 500 µM of each compound, 5% (v/v) DMSO, and 1% (v/v) normal human serum (Innovative Research) (final concentrations) were dissolved in classical/lectin pathway ELISA buffer (20 mM HEPES (pH 7.3), 0.1% (w/v) gelatin, 140 mM NaCl, 2 mM CaCl2, 0.5 mM MgCl2) and added to the IgM-coated plate for 1 h at 37 °C. For the lectin pathway-specific ELISAs shown in Figure 5D, we used C1q-depleted serum from CompTech at 2% (v/v) and thus the classical pathway assays for this analysis were also performed using serum from CompTech at 2% (v/v). For the alternative pathway, 20% (v/v) normal human serum (CompTech) (final concentration) and alternative pathway ELISA buffer (20 mM HEPES, (pH 7.5), 0.1% (w/v) gelatin, 140 mM NaCl, 2 mM CaCl2, 0.5 mM MgCl2) were used in place of classical/lectin pathway ELISA buffer. Plates were then washed three times in wash buffer and each well was filled with 100 µL of α-C4 (HYB 162-02, Santa Cruz Biotechnology) diluted 1:300 for classical and lectin pathway assays and 100 µL of C3b (WM-1, Sigma) diluted 1:300 for alternative pathway assays. Plates were again incubated at 37 °C for 1 h, washed three times, filled with 100 µL of HRP-conjugated goat-α-mouse secondary antibody (diluted 1:3000) (Thermo Scientific, Waltham, MA, USA), and rocked gently for 1 h at 25 °C. After three more washes, 50 µl of substrate (1-step Ultra TMB, Thermo Scientific, Waltham, MA, USA) was added to each well and rocked for 15 min in the dark at 25 °C. The reaction was stopped with 50 µL of 0.16 M sulfuric acid, and the plate was read at 450 nm using an EnSight multimode plate reader (Perkin-Elmer). Each column contained a positive control for full complement activity (5% (v/v) blank DMSO with 1% (v/v) serum) and a negative control for no complement activity (5% (v/v) blank DMSO and no serum). Positive controls (1% (v/v) serum, no inhibitor) were defined as 100% C4b or C3b signal whereas negative controls (no serum) were defined as 0% C4b or C3b signal for each column. Compounds that inhibited complement deposition relative to the control were then evaluated using the same assay setup across a two-fold variable concentration series for each compound (7.8–500 µM). […] All experiments were performed no less than three times.\nStatistical analyses were performed using GraphPad Prism version 8. For complement inhibition assays, measures of statistical significance for single-dose experiments were assessed using unpaired Student’s t-tests compared to no inhibitor controls (pathway ELISAs) or non-binding control compounds (classical pathway ELISA). Statistical significance was defined as p < 0.05. Calculation of IC50 values from dose-dependent complement assays were obtained by non-linear regression analysis using a using an inhibitor vs. response model and with 95% confidence intervals reported. For non-linear regression analyses, the top and bottom of each curve were constrained to 100 and 0, respectively."}, "full-length C1r": {"target": "T1, full-length C1r (Homo sapiens, UniProt P00736)", "T1 construct": "purchased Complement Technology (CompTech)", "T1 sequence (P00736 18-463 limits assumed)": "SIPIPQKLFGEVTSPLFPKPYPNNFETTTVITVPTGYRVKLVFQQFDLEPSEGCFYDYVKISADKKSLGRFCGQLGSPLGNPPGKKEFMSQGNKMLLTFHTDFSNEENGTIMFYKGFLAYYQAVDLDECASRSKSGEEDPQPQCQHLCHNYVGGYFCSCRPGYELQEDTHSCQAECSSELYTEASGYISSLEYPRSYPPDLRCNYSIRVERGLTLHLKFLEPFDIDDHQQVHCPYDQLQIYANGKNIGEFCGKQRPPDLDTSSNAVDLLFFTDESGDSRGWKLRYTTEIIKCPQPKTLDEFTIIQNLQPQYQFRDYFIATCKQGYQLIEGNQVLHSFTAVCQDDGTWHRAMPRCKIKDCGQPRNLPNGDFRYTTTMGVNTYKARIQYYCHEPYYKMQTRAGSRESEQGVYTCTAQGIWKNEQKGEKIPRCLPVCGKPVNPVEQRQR", "T1 sequence (P00736 464-705 limits assumed)": "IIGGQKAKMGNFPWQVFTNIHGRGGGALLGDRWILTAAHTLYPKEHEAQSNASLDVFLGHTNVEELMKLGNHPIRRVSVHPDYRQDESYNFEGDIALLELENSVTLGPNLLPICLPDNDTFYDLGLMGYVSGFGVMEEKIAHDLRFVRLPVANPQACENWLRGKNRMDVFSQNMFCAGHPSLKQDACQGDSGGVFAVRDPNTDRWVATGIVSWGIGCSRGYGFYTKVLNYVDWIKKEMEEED", "experiment": "SPR dose-dependent binding, steady-state affinity", "method": "All SPR experiments were carried out using a Biacore T200 (GE Healthcare, Chicago, IL, USA) at 25 °C. For all experiments, a running buffer (HBS-T) of 20 mM HEPES (pH 7.3), 140 mM NaCl, 0.005% (v/v) Tween-20, 5% DMSO (v/v) was used. For each experiment, DMSO calibration curves ranging from 4% to 5.5% DMSO (v/v) were collected at the beginning, end, and every 50 cycles throughout the duration of the experiment. All experiments were performed using HC1500M sensor chips (Xantec, Duesseldorf, Germany). In total, 10 sensor chips and 16 ligand immobilized surfaces were created over the course of this study (detailed in Table S2). In all cases, C1r proteins were immobilized onto chip surfaces using amine-coupling chemistry with 1-ethyl-3-(3-dimethylaminopropyl)-carbodiimide) (EDC), N-hydroxysuccinimide (NHS), followed by ethanolamine. Briefly, 100 mM of EDC and NHS were mixed and injected to activate the chip surface followed by the C1r protein ligand captured at a defined resonance unit (RU) level, followed by reaction quenching with 100 mM ethanolamine pH 8.5. Flow cell 1 was always used as a reference cell (no ligand), unless otherwise noted. All sensorgrams were reference and blank subtracted and analyzed using T200 Evaluation Software (GE Healthcare, Chicago, IL, USA).\nTo further evaluate hit compounds from the initial SPR screen, dose-dependent SPR binding assays were carried out. Three replicate flow cells were used containing both low and high immobilization densities of C1r (see Table S2). Hit compounds were tested for dose-dependent binding to full-length C1r using a compound concentration range of 7.8–500 µM. T200 evaluation software was used to calculate steady-state affinities for each compound by fitting sensorgrams from each variable concentration injection dataset using a 1:1 Langmuir model of interaction constrained by a theoretical experimental binding response based on the mol. wt. of each compound and derived as stated above. KD values are reported as the mean ± the standard deviation from at least three independent measurements."}}}
{"smiles": "CN1c2ccccc2N(C)C1c1ccccc1", "note": "[CMP-4]", "values": [{"measurement": "inhibition of classical pathway (C4b deposition) relative to non-binding control compound", "setting": "classical pathway", "value": "statistically significant inhibitory activity"}, {"measurement": "Kd", "setting": "full-length C1r; 1:1 steady-state binding model, mean ± S.D. from three independent injection series, 25 °C", "value": 720, "unit": "µM"}, {"measurement": "Ligand efficiency (LE)", "setting": "full-length C1r; LE = ΔG/number of non-hydrogen atoms, ΔG = -RT x ln KD,C1r, using KD values of Fig. 3", "value": 0.25}]}
